What was measured:
Format in all cases: cell-based, human
[1] = tested on: BON cells; experiment: Serotonin EIA, serotonin release
Method: A serotonin ([…]) assay was performed using Serotonin EIA (Biosource, Cat# KAPL10-0900) to measure serotonin release by BON cells over a 48-hour period with or without treatment. […] After 24 hours, the BON cells were subjected to six different daily treatments (at maximum dosages) and grown in FBS-free cell growth media for 2 days in a sterile tissue culture chamber at 37° C. with 6% CO2. These six treatments were: […] The anti-hSSTR Abs (4)-(6) were antibodies produced in the experiment described in Example 1. At the end of each treatment, 1× Halt Protease Inhibitor cocktail (Pierce, Cat# 78415) was immediately added to each sample and the media was collected from each sample and used for Serotonin detection. Next, cells were dissociated from the plate using 2 ml of 1× trypsin-EDTA (Invitrogen Cat#2520) in cell growth media and incubated at 37° C. with 6% CO2 for 5 minutes. Subsequently, an additional 8 ml of cell growth media was added to neutralize trypsin-EDTA, and subjected to 1000 rpm at 4° C. in 15 ml Falcon tubes using Beckman table top centrifuge. Guava Technologies PCA-96 instrument (tabletop flow cytometer) and Viacount flex reagent (Guava Technologies, Cat# 4500-0100) were then used to determine the number of cells for the abovementioned treatments. The results were as follows: […] […]

[2] = tested on: BON cells; experiment: MTS cell proliferation assay, growth doubling time
Method: The effects of anti-hSSTR subtype 2 and anti-hSSTR subtype 5 antibodies on cell proliferation were tested using CellTiter 96® Aqueous One Solution Cell Proliferation Assay (MTS) (Promega, Cat#G3581). The assay was performed to measure the growth doubling time for BON cells in vitro (FIG. 3, growth doubling time in hours is presented on the Y-axis). The growth doubling time for BON cells following treatment with rabbit IgG was around 28 to 30 hours (similar to vehicle alone). […] Cell growth was detected at 490 nm (colorimetric detection) by using instrument Victor 3V (Perkin Elmer) once every 24 hours in the duration of 96 hours.
The resulting maximal suppression in hours (20 hours) is designated as 100% of growth suppression. The difference measured in doubling time detected between experimental samples and untreated samples divided by the maximal suppression yields the percent growth suppression.
BON cells were seeded, grown and maintained in F12 HAM (Invitrogen, Cat#31765035)/D-MEM (Invitrogen, Cat#10567-014) (50/50) with 10% certified fetal bovine serum (FBS) (Invitrogen, Cat#16000-044) in 96-well cell culture dishes (Costar, Cat# 3590) at a density of 2500 cells/well. […] Cell growth was detected at 490 nm (colorimetric detection) by using instrument Victor 3V (Perkin Elmer) once every 24 hours in the duration of 96 hours.

[3] = tested on: BON cells; experiment: Guava Nexin apoptosis assay (Annexin V / 7-AAD); details: 10 μg/ml rabbit IgG or antibodies, 100 nM octreotide, % of Total
Method: Cells were then switched to growth media without FBS and allowed to grow for another 24 hours before applying treatments. Samples were collected and counted in accordance with Guava Technologies' Viacount Flex (Cat#4500-0110) instructions. At the end of each antibody treatment, cells were dissociated from the plate using 1× trypsin-EDTA (Invitrogen Cat#2520). […] Next, phosphate buffer solution (D-PBS) (Invitrogen Cat#14190-144) (Invitrogen) was used as the exchange buffer to resuspend the cell pellet. […] Detection was achieved by using Guava PCA96 instrument and data was analysed by using Guava Nexin software module as (Cat#0500-0250). […] Following the protocol for the Guava Nexin™ assay (Guava Technologies), two different dyes were used to stain for cells undergoing apoptosis: 7-AAD stains for dead and late apoptosis cells (upper right quadrant of each graph in FIG. 10), and Annexin V stains for cells undergoing apoptosis from the early stage (lower right quadrant of each graph in FIG. 10). […] Once every 24 hours for 72 hours (FIGS. 10B, 10C and 10D), cells were collected and tested for apoptosis status using the Guava Nexin™ assay (Guava Technologies).

## C[C@@H](O)[C@@H]1NC(=O)[C@H](CCCCN)NC(=O)[C@@H](Cc2c[nH]c3ccccc23)NC(=O)[C@H](Cc2ccccc2)NC(=O)[C@@H](NC(=O)[C@H](N)Cc2ccccc2)CSSC[C@@H](C(=O)N[C@H](CO)[C@@H](C)O)NC1=O [octreotide]
[1]; 48-hour period, 5 μg/ml antibody or rabbit IgG, 100 nM octreotide, four independent experiments
  serotonin level in the media: 2126 attogram/cell
[1]; 48 hours, antibodies against rabbit IgG, octreotide against vehicle (PBS)
  decrease of serotonin release against control: 2.7 fold
[2]; octreotide 0.5, 1, 10 to 50 nM, FIG. 5
  approximate EC50 (growth): single nM
[2]; saturating octreotide (50 nM)
  doubling time: ~50 h
[3]; 24 hours after treatment
  7-AAD+: 1.1%
  Annexin V+: 4.3%
  Early apoptotic cells (Lower Right Quadrant): 3.3%
  Late apoptotic cells (Upper Right Quadrant): 1.0%
  Nuclear Debris (Upper Left Quadrant): 0.1%
[3]; 48 hours after treatment
  7-AAD+: 10.9%
  Annexin V+: 13.7%
  Early apoptotic cells (Lower Right Quadrant): 3.8%
  Nuclear Debris (Upper Left Quadrant): 1.0%
[3]; 72 hours after treatment
  7-AAD+: 19.8%
  Annexin V+: 26.9%
  Early apoptotic cells (Lower Right Quadrant): 7.7%
  Late apoptotic cells (Upper Right Quadrant): 19.2%
  Nuclear Debris (Upper Left Quadrant): 0.6%
